Tests used:
Type in all cases: cell-based, human
[1] = system: ovarian cancer (OVCAR3) cell line; test: 72 hr ATP luminescence cell proliferation inhibition assay, OVCAR3
Experimental: (§1) Proliferation inhibition was measured using a 72 hr ATP luminescence assay (Cheng et al., U.S. Pat. No. 8,394,922 B2 (2013)). The antiproliferative effects are reported as IC50's, i.e., the concentration of compound that produces a 50% inhibitory effect on cell proliferation.

[2] = system: mesothelioma (H226) cancer cell line; test: 72 hr ATP luminescence cell proliferation inhibition assay, H226
Experimental: as §1

[3] = system: gastric (stomach) cancer (N87) cell line; test: 72 hr ATP luminescence cell proliferation inhibition assay, N87; conditions: N87 cells
Experimental: as §1

[4] = system: colon cancer (HCT116) cell line; test: 72 hr ATP luminescence cell proliferation inhibition assay, HCT116
Experimental: as §1

Compound	IC50 ([1]; OVCAR3 cells) [nM]	IC50 ([2]; H226 cells) [nM]	IC50 [3] [nM]	IC50 ([4]; HCT116 cells) [nM]	IC50 ([1]; Homo sapiens, OVCAR-3, OVCAR3 cells) [nM]	IC50 ([2]; Homo sapiens, NCI-H226, H226 cells) [nM]	IC50 ([3]; Homo sapiens) [nM]	IC50 ([4]; Homo sapiens, HCT-116, HCT116 cells) [nM]
COc1cc2c(cc1OCCCC(=O)Nc1ccc(C(=O)Nc3ccccc3)cc1)N=C[C@@H]1Cc3ccccc3CN1C2=O [(Ib-01)]	0.38	1.2	0.65	0.73				
COc1cc2c(cc1OCCCC(=O)Nc1ccccc1C(=O)Nc1ccccc1)N=C[C@@H]1Cc3ccccc3CN1C2=O [(Ib-02)]	140	< 250	93	< 250				
COc1cc2c(cc1OCCCC(=O)Nc1cccc(C(=O)Nc3ccccc3)c1)N=C[C@@H]1Cc3ccccc3CN1C2=O [(Ib-03)]	3.1	9.4	2.4	6.9				
COc1cc2c(cc1OCCCC(=O)Nc1nc(C(=O)Nc3ccccc3)cs1)N=C[C@@H]1Cc3ccccc3CN1C2=O [(Ib-05)]	0.27	0.23	0.11	0.12				
COc1cc2c(cc1OCCCC(=O)Nc1cc(C(=O)Nc3ccc(-n4cnc(C)n4)c(C(F)F)c3)n(C)c1)N=C[C@@H]1Cc3ccccc3CN1C2=O [(Ib-09)]	0.12	0.05	0.035	0.039				
COc1cc2c(cc1OCCCC(=O)Nc1cc(C(=O)Nc3ccc(-n4cnc(C)n4)c(OCC(F)F)c3)n(C)c1)N=C[C@@H]1Cc3ccccc3CN1C2=O [(Ib-11)]	0.1	0.98	0.12	0.026				
COc1cc2c(cc1OCCCC(=O)Nc1cc(C(=O)Nc3ccc(-n4cnc(C)n4)c(OC)c3)n(C)c1)N=C[C@@H]1Cc3ccccc3CN1C2=O [(Ib-13)]					0.17	0.039	0.14	0.036

Second part, led by results:

IC50 ([1]; OVCAR3 cells) [nM]	IC50 ([2]; H226 cells) [nM]	IC50 [3] [nM]	IC50 ([4]; HCT116 cells) [nM]	Compound	IC50 ([1]; Homo sapiens, OVCAR-3, OVCAR3 cells) [nM]	IC50 ([2]; Homo sapiens, NCI-H226, H226 cells) [nM]	IC50 ([3]; Homo sapiens) [nM]	IC50 ([4]; Homo sapiens, HCT-116, HCT116 cells) [nM]
0.78	5.6	2.6	2.7	COc1cc2c(cc1OCCCC(=O)Nc1ncc(C(=O)Nc3ccccc3)s1)N=C[C@@H]1Cc3ccccc3CN1C2=O [(Ib-04)]				
0.031	< 0.004	0.009	0.008	COc1cc2c(cc1OCCCC(=O)Nc1cc(C(=O)Nc3ccc(-n4cnc(C)n4)nc3)n(C)c1)N=C[C@@H]1Cc3ccccc3CN1C2=O [(Ib-06)]				
0.024	0.02	0.073	0.018	COc1cc2c(cc1OCCCC(=O)Nc1cc(C(=O)Nc3ccc(-n4cnc(Cl)c4)nc3)n(C)c1)N=C[C@@H]1Cc3ccccc3CN1C2=O [(Ib-07)]				
0.013	0.007	0.006	< 0.004	COc1cc2c(cc1OCCCC(=O)Nc1cc(C(=O)Nc3ccc(-n4cnc(C)n4)c(F)c3)n(C)c1)N=C[C@@H]1Cc3ccccc3CN1C2=O [(Ib-08)]				
0.037	0.018	0.026	0.014	COc1cc2c(cc1OCCCC(=O)Nc1cc(C(=O)Nc3ccc(-n4cnc(C(F)F)n4)c(OC)c3)n(C)c1)N=C[C@@H]1Cc3ccccc3CN1C2=O [(Ib-10]				
0.074	0.059	0.027	0.023	COc1cc2c(cc1OCCCC(=O)Nc1cc(C(=O)Nc3ccc(-n4cnc(C)n4)c(OC(F)F)c3)n(C)c1)N=C[C@@H]1Cc3ccccc3CN1C2=O [(Ib-12)]				
0.18	0.67	0.049	0.07	COc1cc2c(cc1OCCCC(=O)Nc1cc(C(=O)Nc3ccc(-c4cccc(C(=O)OC(C)C)c4)cc3)n(C)c1)N=C[C@@H]1Cc3ccccc3CN1C2=O [(Ib-14)]				
< 0.004	< 0.004	< 0.004	0.002	COc1ccc(-c2ccc(NC(=O)c3cc(NC(=O)CCCOc4cc5c(cc4OC)C(=O)N4Cc6ccccc6C[C@H]4C=N5)cn3C)cc2)cc1 [(Ib-15)]				
0.12	< 0.004	< 0.004	< 0.004	COc1cc2c(cc1OCCCC(=O)Nc1cc(C(=O)Nc3ccc(-n4cnc(C)n4)cc3)n(C)c1)N=C[C@@H]1Cc3ccccc3CN1C2=O [(Ib-16)]				
